Patent US20260355180A1, “COMPOSITIONS AND METHODS FOR SPLICEOSOME-TARGETED THERAPIES” (Institute for Cancer Research d/b/a The Research Institute …, priority 2022, published 2026)
“Also recorded” adds a separate entry of the source. Residues, ends and D or L forms follow the SMILES beside them. *: point of attachment. Cbz = O=C(OCc1ccccc1)*; CH2F = FC*

Experiments:
ZBP1 reconstituted MEF = experiment: Rescue of PlaB-mediated cell death by RIPK3 inhibitor; assay type: cell-based, mouse; conditions: 2.5 nM PlaB, 18 hours, with RIPK3 inhibitor
Description: FIG. 5A-5E: SF3B1 perturbation upregulates A-RNA and Z-nucleic acids in MEFs. (FIG. 5A) 5 nM of PlaB induces A-RNA and Z-Nucleic acids in ΔZBP1 MEF cells. (FIG. 5B) Quantification of A-RNA and Z-Nucleic acids. […] Plots of signal intensity are mean±SEM, two-tailed unpaired Student's t test *p<0.05, ***p<0.001, ****p<0.0001. 18 hours of PlaB treatment for IF, WB and rescue experiments. IF: 5 nM PlaB, WB and rescue experiments: 2.5 nM PlaB.
Since induction of Z-nAs can result in ZBP1-dependent necroptosis, we analyzed induction of necroptosis in necroptotic competent MEFs using spliceosome inhibition. […] We also determined that MEFs ΔZBP1, WT, and Flag-ZBP1 cells treated with PlaB began dying within 24hours after treatment. With MEF Flag-ZBP1 cells showing only 20% survival after 24 hours (FIG. 16).

H82 cells = experiment: Restoration of cell survival by RIPK1 or caspase inhibition, H82; assay type: cell-based; conditions: H82 treated with PlaB plus inhibitor
Description: (§1) FIG. 8A-8B: Spliceosome Perturbation induces RIPK1-dependent apoptosis. (FIG. 8A) H82 and H446 cells were treated with PlaB, PlaB+Z-vad, PlaB+R3i, and PlaB+Z-Vad+R3i. H82 and H446 cells were treated with PlaB, PlaB+Z-vad, and PlaB+Necl.
(§2) In addition, our CRISPR-Cas9 KO of RIPK1 also rescues SCLC cell lines from PlaB induced toxicity.

H446 cells [1] = experiment: Restoration of cell survival by RIPK1 or caspase inhibition, H446; assay type: cell-based, human; conditions: H446 treated with PlaB plus inhibitor
Description: as §1, §2

H446 cells [2] = experiment: Immunofluorescence of A-RNA (J2) and Z-NA (Z22), H446; assay type: cell-based, human; conditions: low dose
Text: FIG. 4A-4C: SF3B1 perturbation increases dsRNA and Z-nucleic acid levels in treated cells. […] (FIG. 4B) Quantification of A-RNA and Z-Nucleic acids. (FIG. 4C) Western blot showing induction of cleaved-PARP, pH2AX, and ZBP1, and the reduction of RIPK1 protein levels. Plots of signal intensity are mean±SEM, two-tailed unpaired Student's t test **p<0.01, ****p<0.0001.
Our observations led us to explore what caused the elevated IFN response. We used an immunofluorescence (IF) technique to determine if A-RNA was increased after PlaB treatment.

Structure (SMILES) | rescue of PlaB-mediated cell death (necroptosis) (ZBP1 reconstituted MEF) | cell survival (H82 cells) | cell survival (H446 cells [1]) | accumulation of A-RNA (H446 cells [2]; J2 antibody) | accumulation of Z-Nucleic acids (H446 cells [2]; Z22 antibody)
Cc1cc(-c2cnc(N)c3c(-c4ccc5scnc5c4)csc23)n(C)n1 [GSK-843] | completely rescued; also recorded: successfully rescue |  |  |  | 
CN1C(=O)C(Cc2c[nH]c3ccccc23)NC1=S (stereo not shown) [Nec-I, necrostatin I] |  | significantly restore cell survival | significantly restore cell survival |  | 
COC(=O)C[C@H](NC(=O)[C@H](C)NC(=O)[C@@H](NC(=O)OCc1ccccc1)C(C)C)C(=O)CF [Z-Vad FMK] (Cbz-Val-Ala-Asp(OMe)-CH2F) |  | significantly restore cell survival | significantly restore cell survival |  | 
NS(=O)(=O)c1ccc(S(=O)(=O)Nc2cccc3c(Cl)c[nH]c23)cc1 [indisulam] |  |  |  | induces accumulation | induces accumulation
